Source: ChEMBL document CHEMBL1240321, “Cyclostreptin binds covalently to microtubule pores and lumenal taxoid binding sites” (Nat Chem Biol, 2007)

Assay: Induction of mitotic cell cycle arrest in potoroo PtK2 cells assessed as accumulation of cells at G1/G0 phase at 2 uM after 7 hrs by flow cytometry (Rvb= 15.5%)
Format: functional, Potorous tridactylus

For `CC1=C[C@H]2[C@@H](O)[C@H](C)[C@@H](O)[C@@H]2[C@H]2[C@@H]3C4=C5O[C@](C)(CC[C@@H](OC4=O)[C@H]5C)[C@@H]3C[C@@H]12` [CYCLOSTREPTIN], the Activity was 18%.
